This is an account of results in patent US9301965B2, “Method of treating ovarian cancer using a PKC inhibitor” (University of South Florida, priority 2014, dated 2016).

In assay [1] the target is PKC-δ (Homo sapiens, UniProt Q05655). To be noted: cited from earlier work.
Assay [2] deals with T1, PKC-ε (Homo sapiens, UniProt Q02156).
T1 sequence (Q02156 1-737): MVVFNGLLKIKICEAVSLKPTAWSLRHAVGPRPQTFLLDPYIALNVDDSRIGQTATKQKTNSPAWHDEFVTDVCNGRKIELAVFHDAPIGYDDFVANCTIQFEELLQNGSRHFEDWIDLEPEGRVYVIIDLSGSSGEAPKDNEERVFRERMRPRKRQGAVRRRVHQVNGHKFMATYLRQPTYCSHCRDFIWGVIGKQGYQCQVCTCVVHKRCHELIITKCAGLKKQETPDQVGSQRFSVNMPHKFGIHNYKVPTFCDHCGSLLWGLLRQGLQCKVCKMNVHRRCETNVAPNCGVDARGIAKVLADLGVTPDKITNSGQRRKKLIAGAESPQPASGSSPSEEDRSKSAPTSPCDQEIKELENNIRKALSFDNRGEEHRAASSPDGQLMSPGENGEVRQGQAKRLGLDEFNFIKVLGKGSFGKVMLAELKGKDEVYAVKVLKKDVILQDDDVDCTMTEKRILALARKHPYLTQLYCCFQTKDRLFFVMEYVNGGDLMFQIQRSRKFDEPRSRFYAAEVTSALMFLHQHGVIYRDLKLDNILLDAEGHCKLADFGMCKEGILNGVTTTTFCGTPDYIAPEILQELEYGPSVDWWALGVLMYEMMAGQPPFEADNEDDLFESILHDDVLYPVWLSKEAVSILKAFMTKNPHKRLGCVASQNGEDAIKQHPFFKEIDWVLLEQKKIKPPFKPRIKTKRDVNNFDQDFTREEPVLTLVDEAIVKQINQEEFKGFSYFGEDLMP
The following applies: cited from earlier work.

The target of assay [3] is PKC-β (Homo sapiens, UniProt P05771). To be noted: cited from earlier work.
PKC-β, sequence (P05771 whole entry, species assumed): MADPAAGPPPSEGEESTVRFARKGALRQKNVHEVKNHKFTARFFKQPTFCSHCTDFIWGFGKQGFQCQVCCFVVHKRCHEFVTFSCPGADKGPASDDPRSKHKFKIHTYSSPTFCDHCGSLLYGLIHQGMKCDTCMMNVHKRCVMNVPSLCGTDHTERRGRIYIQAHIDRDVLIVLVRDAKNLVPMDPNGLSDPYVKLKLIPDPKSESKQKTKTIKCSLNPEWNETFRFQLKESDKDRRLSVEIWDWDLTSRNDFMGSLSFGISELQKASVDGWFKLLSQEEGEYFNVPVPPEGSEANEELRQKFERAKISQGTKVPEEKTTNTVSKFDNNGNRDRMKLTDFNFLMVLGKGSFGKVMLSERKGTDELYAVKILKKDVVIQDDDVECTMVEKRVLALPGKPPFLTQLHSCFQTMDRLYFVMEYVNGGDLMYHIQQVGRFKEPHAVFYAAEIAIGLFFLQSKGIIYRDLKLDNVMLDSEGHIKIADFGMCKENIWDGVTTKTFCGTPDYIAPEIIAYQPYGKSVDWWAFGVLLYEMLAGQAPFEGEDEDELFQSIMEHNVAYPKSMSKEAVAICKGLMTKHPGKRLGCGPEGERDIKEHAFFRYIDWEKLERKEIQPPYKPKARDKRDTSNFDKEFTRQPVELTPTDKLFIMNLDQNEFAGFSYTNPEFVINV
Assay [4] has as its target PKC-α (Homo sapiens, UniProt P17252). To be noted: cited from earlier work.
Assay [5] concerns HEY ovarian cancer cells. The assay can be described thus: HEY cell proliferation, Trypan blue exclusion assay. The class given is cell-based, human. As to the method:
HEY human ovarian carcinoma cells were obtained from Dr. Meera Nanjundan's laboratory at the University of South Florida. The cells were grown as a monolayer in a T25 tissue culture flask with 5 mL of growth medium and maintained in a 37° C. incubator with 5% CO2. The RPMI1640 growth medium was obtained from and American Type Culture Collection (ATCC) and Life Technologies (Carlsbad, Calif.). The medium was supplemented with 10% fetal bovine serum (FBS) and a mix of the antibiotics Penicillin (10,000 IU) and Streptomycin (10,000 μg/ml) in a 100× concentration which was purchased from Corning.
HEY cells were cultured in a T25 cell culture flask. 13,000 cells were seeded into each well in a 6-well culture plate. ACPD was weighed and dissolved in water to create a 100 mM stock solution. From this solution, serial dilutions were done to create a 1 mM stock solution which was then used for treatment. In order to assess the effect of ACPD on cell viability, three wells were treated with 2 μM ACPD while the other three wells were left untreated as controls. The treatment period was 72 hours with the growth medium being changed every 24 hours. The cells were also washed with DPBS every time the growth medium was changed. Cell viability was determined at 24, 48 and 72 hours using a Trypan blue exclusion assay where 30 μL of the cell suspension was added to 30 μL of Trypan blue. The number of unstained cells was counted using a hematocytometer. The same procedures were used for ICA-1.
The experiments were performed as per the protocol described by Patel et al. (2008), herein incorporated by reference. Briefly, cells were cultured in T75 flasks in monolayers. For treatment, 40,000 cells were seeded into T75 flasks and treated for 72 hours with ICA-1 and ACPD. The proliferation was measured each day by a Trypan Blue exclusion assay which involved staining the cells with Trypan Blue and counting them under a microscope using a hemocytometer.

Assay [6] relates to HEY ovarian cancer cells. The assay can be described thus: Total RNA concentration of HEY cells (Rneasy Mini Kit, NanoDrop1000). The class given is cell-based, human. The following applies: for reduction of total RNA: 2 μM. From the text:
RNA was isolated from the treated and untreated cells using the Rneasy Mini Kit and protocol. The total RNA concentration was estimated using the NanoDrop1000 spectrophotometer.

Assay [7] deals with T2, PKC-ζ (Homo sapiens, UniProt Q05513).
T2 sequence (Q05513 1-592): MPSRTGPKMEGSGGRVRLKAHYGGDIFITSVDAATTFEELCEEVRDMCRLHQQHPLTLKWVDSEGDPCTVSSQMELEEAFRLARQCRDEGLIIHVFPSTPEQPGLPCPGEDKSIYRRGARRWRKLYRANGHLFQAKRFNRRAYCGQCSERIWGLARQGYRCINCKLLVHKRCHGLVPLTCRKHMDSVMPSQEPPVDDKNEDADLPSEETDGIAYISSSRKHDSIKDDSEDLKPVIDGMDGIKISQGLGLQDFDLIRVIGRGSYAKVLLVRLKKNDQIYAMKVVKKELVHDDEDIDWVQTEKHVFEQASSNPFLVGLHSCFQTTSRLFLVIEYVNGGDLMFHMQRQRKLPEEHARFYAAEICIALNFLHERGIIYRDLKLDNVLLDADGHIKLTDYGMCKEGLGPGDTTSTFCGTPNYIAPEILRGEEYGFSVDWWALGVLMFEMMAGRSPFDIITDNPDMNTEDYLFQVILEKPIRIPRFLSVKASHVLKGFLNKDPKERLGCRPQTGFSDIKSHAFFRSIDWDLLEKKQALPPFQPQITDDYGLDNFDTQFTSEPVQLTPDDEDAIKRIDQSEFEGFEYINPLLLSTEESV
The following applies: cited from earlier work.

In assay [8] the target is T3, PKC-ι (Homo sapiens, UniProt P41743).
T3 sequence (P41743 1-596): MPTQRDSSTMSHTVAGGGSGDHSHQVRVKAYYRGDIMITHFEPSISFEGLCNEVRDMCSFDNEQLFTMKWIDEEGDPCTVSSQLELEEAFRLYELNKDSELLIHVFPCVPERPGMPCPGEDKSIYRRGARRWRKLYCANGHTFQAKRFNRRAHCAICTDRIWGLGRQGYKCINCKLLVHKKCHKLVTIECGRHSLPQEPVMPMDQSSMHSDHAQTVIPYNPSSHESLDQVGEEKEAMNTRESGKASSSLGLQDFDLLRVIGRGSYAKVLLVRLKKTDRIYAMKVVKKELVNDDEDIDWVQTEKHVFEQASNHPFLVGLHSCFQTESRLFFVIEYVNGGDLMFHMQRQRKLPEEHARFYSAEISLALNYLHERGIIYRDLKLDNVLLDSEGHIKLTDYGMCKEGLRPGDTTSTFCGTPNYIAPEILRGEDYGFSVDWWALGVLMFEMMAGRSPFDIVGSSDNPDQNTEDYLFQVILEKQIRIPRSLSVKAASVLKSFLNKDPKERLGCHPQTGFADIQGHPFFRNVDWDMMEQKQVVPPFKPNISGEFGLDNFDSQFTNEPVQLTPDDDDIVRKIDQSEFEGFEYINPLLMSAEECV
To be noted: cited from earlier work.

The target in assay [9] is T3, PKC-ι. The following applies: cited from earlier work. The source holds these as a separate data set.

The structures appear in SMILES notation. Several values for one entry are separate records, joined by “and”; a condition that tells them apart may be missing. Equal values may be shown once.

PKC-δ, sequence (Q05655 whole entry): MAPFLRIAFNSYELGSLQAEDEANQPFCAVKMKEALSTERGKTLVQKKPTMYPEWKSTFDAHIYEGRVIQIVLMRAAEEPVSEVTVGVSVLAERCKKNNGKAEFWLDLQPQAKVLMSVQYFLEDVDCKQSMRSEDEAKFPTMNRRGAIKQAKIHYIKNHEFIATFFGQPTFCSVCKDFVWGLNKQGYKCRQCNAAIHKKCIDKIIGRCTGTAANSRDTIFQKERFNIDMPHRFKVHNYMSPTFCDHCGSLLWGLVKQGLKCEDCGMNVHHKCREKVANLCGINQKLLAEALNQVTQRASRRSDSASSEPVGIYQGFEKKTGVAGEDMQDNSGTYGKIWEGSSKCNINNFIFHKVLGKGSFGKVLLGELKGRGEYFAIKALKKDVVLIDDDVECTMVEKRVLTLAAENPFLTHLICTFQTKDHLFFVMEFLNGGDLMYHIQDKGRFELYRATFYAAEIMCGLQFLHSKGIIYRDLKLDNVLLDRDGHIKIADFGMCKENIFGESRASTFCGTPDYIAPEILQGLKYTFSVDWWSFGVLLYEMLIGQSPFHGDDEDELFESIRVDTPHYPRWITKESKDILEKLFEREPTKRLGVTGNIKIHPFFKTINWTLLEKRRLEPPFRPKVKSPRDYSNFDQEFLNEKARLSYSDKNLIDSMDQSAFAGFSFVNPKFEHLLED

Turning to `CC(=O)C1=C(O)CCC1=O` [ACPD, 2-acetyl-1,3-cyclopentanedione], in assay [1], the “inhibition of PKC-δ” value is on record as “not PKC-α, PKC-β, PKC-δ, or PKC-ε”. For the same compound, the “inhibition of PKC-ε” value in assay [2] is recorded as “not PKC-α, PKC-β, PKC-δ, or PKC-ε”. Further, the “inhibition of PKC-β” value in assay [3] is reported as “not PKC-α, PKC-β, PKC-δ, or PKC-ε”. The “inhibition of PKC-α” value in [4] is “not PKC-α, PKC-β, PKC-δ, or PKC-ε”. The “reduction of cell proliferation” value is 16% in [5] (800 nM, 72 hour treatment); 28% in assay [5] (1.8 μM, 72 hour treatment); 82% and 81.75% in [5] (2 μM, 24 hours, compared to controls); 60.5% and 60% in assay [5] (2 μM, 48 hours). Moreover, the “effectiveness in inhibiting cell proliferation relative to ICA-1” value in assay [5] (HEY ovarian cancer cells) was “over five times more effective than ICA-1”. In addition, in assay [6] (1.8 μM, 72 hour treatment), the “reduction of total RNA concentration” value is given as 38%. Moreover, the “reduction of total RNA” value is 97% and 97.4% in [6] (24 hours); 52.4% and 52% in [6] (48 hours); 34.3% and 34% in [6] (72 hours). The “inhibition of PKC-ζ” value in [7] was “inhibits both PKC-ζ and PKC-ι”. The “inhibition of PKC-ι” value in [8] is “inhibits both PKC-ζ and PKC-ι”.

In the case of `O=C([O-])CC([S][Au])C(=O)[O-]` (centres unmarked) [Sodium aurothiomalate], in assay [9], the “binding to PKC-ι” value was “low micromolar range”.

As to `OC[C@H]1O[C@H]([S][Au])[C@H](O)[C@@H](O)[C@@H]1O` [aurothioglucose], in assay [9], the “binding to PKC-ι” value is “low micromolar range”.
